row,Compound,melting point
1,COc1cc(C(=O)O)ccc1OC(C)C,140 to 142 °C
2,O=C(O)CC1=NN(c2ccc(Cl)cc2Cl)C(=O)C1,179 to 181 °C
3,Nc1c(-c2ccccc2)ncn1N,126 to 128 °C
4,CN(C)C=C(C#N)S(C)(=O)=O,129 to 131 °C
5,NC(=O)c1sc2cc(Cl)ccc2c1Cl,269 to 271 °C
6,O=C(O)C1CCN(c2ccccc2[N+](=O)[O-])CC1,158 to 160 °C
7,CSc1ccc(C(=O)O)cc1[N+](=O)[O-],225 to 227 °C
8,CS(=O)c1ccc(C=O)cc1 (centres undefined),88 to 90 °C
9,OCc1sc(N2CCOCC2)nc1-c1ccccc1,118 to 120 °C
10,NC1CCN(c2ccccc2F)C1=O (centres undefined),67 to 69 °C
11,Oc1ccc2ccccc2c1CN1CCOCC1,52 to 54 °C
12,NC(=O)CCSc1ccccc1F,84 to 86 °C
13,Clc1nc(C2CC2)nc2sc3c(c12)CCCC3,112 to 114 °C
14,O=C(O)CCNS(=O)(=O)c1ccc(Cl)cc1,155 to 159 °C
15,O=C(O)c1nc2ncc(Br)cn2n1,199 to 201 °C
16,Cc1noc(COCC(=O)O)n1,76 to 78 °C
17,CC(C)(C)CNC(=O)c1ccc(C(=O)O)cn1,239 to 241 °C
18,CN1CCCCC/C1=N\S(=O)(=O)c1cccc(N)c1,172 to 174 °C
19,O=c1[nH]cnc2cc(F)c([N+](=O)[O-])cc12,292 to 294 °C
20,N#Cc1cc2c([nH]c1=O)CCCCC2,253 to 255 °C
21,Cc1n[nH]c(C)c1S(=O)(=O)N1CCC(=O)CC1,191 to 193 °C
22,O=C(O)c1ccccc1S(=O)(=O)C(F)(F)F,107 to 109 °C
23,Cc1nn(Cc2c(Cl)cccc2Cl)c(Cl)c1C(=O)O,187 to 189 °C
24,Cc1nn(-c2ccccc2)cc1N,81 to 83 °C

row,Compound,melting point
1,N#Cc1c(NC(=O)CCl)sc2c1CCC2,176 to 178 °C
2,CCOC(=O)c1[nH]ncc1C=O,168 to 170 °C
3,Nc1cccc2c1C(=O)N(Cc1ccccc1)C2=O,147 to 149 °C
4,CN(Cc1ccccc1)C(=O)NCCC(=O)O,120 to 122 °C
5,OCC1NCCc2ccccc21 (centres undefined),71 to 73 °C
6,NCC1(Nc2ccccc2)CCCCC1,61 to 63 °C
7,O=C(O)c1ccc(S(=O)(=O)C2CCCC2)cc1,199 to 201 °C
8,CC(=O)Nc1ccc(N=C=S)cc1,199 to 201 °C
9,CC(=O)Nc1cc2ccccc2cc1C(=O)O,190 to 192 °C
10,CC(=O)CC(=O)c1ccncc1,63 to 65 °C
11,Cc1[nH]c2ccc(F)cc2c1C=O,215 to 217 °C
12,CCNS(=O)(=O)c1cccc(F)c1,49 to 51 °C
13,CC(C)(C)OC(=O)N1CCCCC1C#N (centres undefined),62 to 66 °C
14,NC(Cc1ccccc1)CN1CCOCC1 (centres undefined),54 to 56 °C
15,CC(C)CC(=O)Nc1ccccc1C(=O)O,121 to 123 °C
16,N#Cc1cc(Br)cs1,47 to 49 °C
17,COC(=O)c1cc2ccccc2nc1Cl,82 to 84 °C
18,O=C(O)c1ccc(=O)n(-c2ccccc2F)n1,199 to 201 °C
19,Nc1nnc(Cc2ccccc2Cl)o1,196 to 198 °C
20,O=C(O)C1CCN(S(=O)(=O)c2ccc3c(c2)CCCC3)CC1,181 to 183 °C
21,CC(=O)N(c1nc(CCl)cs1)C1CC1,56 to 58 °C
22,O=Cc1cn(-c2ccccc2)nc1-c1cc2ccccc2oc1=O,223 to 225 °C
23,NC(=NO)c1ccc(CN2CCOCC2)cc1,158 to 160 °C
24,O=C(O)Cc1c[nH]c2ccc([N+](=O)[O-])cc12,189 to 191 °C

row,Compound,melting point
1,Cc1sc([N+](=O)[O-])cc1[N+](=O)[O-],81 to 83 °C
2,O=S1(=O)CCNCN1,143 to 145 °C
3,N#Cc1ccc(OCCO)cc1,85 to 87 °C
4,COc1ccc(S(N)(=O)=O)c(N)c1,139 to 141 °C
5,CC(C)(C)c1ccc(S(=O)(=O)CCN)cc1,46 to 48 °C
6,O=Cc1cc(C(=O)O)co1,165 to 167 °C
7,O=C(O)CN1C(=O)CCCc2sccc21,138 to 140 °C
8,O=Cc1nc(-c2ccccc2)c[nH]1,170 to 172 °C
9,CC(Br)C(=O)c1ccc2c(c1)CCC(=O)N2 (centres undefined),193 to 195 °C
10,Nc1cccc(-c2ccc3ccccc3c2)n1,124 to 126 °C
11,Sc1nnc(-c2cccnc2)n1Cc1ccccc1,179 to 181 °C
12,CC(O)c1nc(-c2ccccc2)cs1 (centres undefined),75 to 77 °C
13,CC(C)(C)c1ccc2c(c1)C(=O)C(=O)N2,145 to 147 °C
14,CNC(=O)c1ccnc(F)c1,127 to 129 °C
15,Sc1nnc(C2CC2)n1C1CC1,138 to 140 °C
16,COc1ccc(OCc2ccccn2)c(/C=C/C(=O)O)c1,177 to 179 °C
17,Cc1n[nH]c(C(=O)O)c1O,184 to 186 °C
18,CCCS(=O)(=O)NC(C(=O)OCC)C(=O)OCC,40 to 42 °C
19,O=C(O)c1cccc(-c2nnco2)c1,239 to 241 °C
20,CNS(=O)(=O)c1ccc(N)cc1OC,187 to 189 °C
21,Cc1cccc(Nc2nnc(SCC(=O)O)s2)c1C,159 to 161 °C
22,CNc1ccncc1[N+](=O)[O-],157 to 159 °C
23,O=C(O)c1ccc(SC2CC2)cc1,156 to 158 °C
24,COc1ccc(Cl)c(NC(=O)NN)c1,159 to 161 °C

row,Compound,melting point
1,Nc1cc(C(=O)O)ccc1Oc1ccccc1,146 to 148 °C
2,CC1=CC=CC(=C2Nc3cc(F)ccc3N2C2CC2)C1=N,149 to 151 °C
3,Nc1cc(Br)ccc1C(=O)O,222 to 224 °C
4,NC(=O)Nc1ccc(Cl)c(N)c1,176 to 178 °C
5,CC(C)(C)C(=O)Nc1ccccc1C(=O)O,157 to 159 °C
6,CCC(=O)Nc1ccc(C)c(N)c1,121 to 123 °C
7,O=Cc1cnn(-c2ccccc2)n1,66 to 68 °C
8,Cc1cc(Br)c(S(=O)(=O)Cl)c(Br)c1,124 to 126 °C
9,CCOC(=O)CN(CCC#N)c1ccc(OC)cc1,61 to 63 °C
10,NS(=O)(=O)c1ccc(CNC(=O)OCC(F)(F)F)cc1,150 to 152 °C
11,Cc1ccc(CN2C(=O)CCC2C(=O)O)cc1 (centres undefined),128 to 130 °C
12,COc1ccc(C(=O)O)cc1S(=O)(=O)NCc1ccncc1,225 to 227 °C
13,O=C(c1ccc(F)cc1)c1ccccn1,83 to 85 °C
14,NC(=O)c1ccc(N)c(F)c1,152 to 154 °C
15,COc1ccccc1NC(=O)c1cc2ccccc2cc1O,161 to 164 °C
16,O=C(O)CCn1ccccc1=O,146 to 148 °C
17,O=C(O)/C=C/c1ccc(OC(F)F)cc1OC(F)F,106 to 108 °C
18,CCN(CC)S(=O)(=O)c1cc(NC(=O)CCl)ccc1C,70 to 72 °C
19,CC1CNc2cccnc2N1 (centres undefined),110 to 112 °C
20,CC1CCCC(=O)N1 (centres undefined),87 to 89 °C
21,NNC(=O)c1cccc(S(=O)(=O)N2CCCC2)c1,153 to 155 °C
22,COc1ccc(OCc2nc(C=O)cs2)cc1,95 to 97 °C
23,COc1ccc(Cl)cc1CBr,77 to 79 °C
24,Nc1ncn(Cc2cccnc2)n1,112 to 114 °C

row,Compound,melting point
1,O=C(c1ccccc1)c1c(Cl)cccc1Cl,82 to 84 °C
2,C=CCOc1ccc(C(=O)O)cc1OC,173 to 175 °C
3,CN(C)c1ccnc(N)c1,113 to 115 °C
4,O=C1COc2ccc(C(=O)CCl)cc2N1,228 to 230 °C
5,CC1=NN(c2ccc(Cl)c(Cl)c2)C(=O)C1,158 to 160 °C
6,Cc1cc(C)n(-c2ccc(C(=O)O)cc2F)n1,184 to 186 °C
7,Cc1csc(Sc2ccc(N)cc2)n1,99 to 101 °C
8,Cc1cc(Cl)n2c(nc3ccccc32)c1C#N,210 to 212 °C
9,Cc1ccc(Cn2nc(C)c(C=O)c2C)cc1,65 to 67 °C
10,O=C(O)CCCc1nc(-c2ccccc2)no1,105 to 107 °C
11,COc1nc(C)cc(C)c1C#N,96 to 98 °C
12,Cc1cc(C)n2ncc(C(=O)NCC(=O)O)c2n1,244 to 246 °C
13,CC1=NNC(=O)C1CCN (centres undefined),229 to 231 °C
14,Nc1ccc(Cl)cc1C(=O)c1ccc[nH]1,149 to 151 °C
15,Cc1cc(Br)ccc1N1CCCS1(=O)=O,77 to 79 °C
16,O=S1(=O)N=C2CCCCCN2C(CCl)N1 (centres undefined),181 to 183 °C
17,Nc1ccc(S(=O)(=O)Nc2ccc(Cl)c(Cl)c2)cc1,223 to 225 °C
18,O=C(O)CCCCNC(=O)OCc1ccccc1,104 to 106 °C
19,O=C(O)CCN1C(=O)C(=Cc2ccc(F)cc2)SC1=S,135 to 137 °C
20,O=C(O)C1CCc2nncn2C1 (centres undefined),279 to 281 °C
21,O=C(O)c1oc2ccccc2c1CSc1nnc[nH]1,159 to 161 °C
22,O=C(O)CC(O)(c1ccccc1)C1CC1 (centres undefined),105 to 107 °C
23,N#Cc1ccc(N2CCC(C(=O)O)CC2)nc1,174 to 176 °C
24,O=C(O)COc1ccc(C(=O)c2ccccc2Cl)cc1,141 to 143 °C

row,Compound,melting point
1,COc1ccc(Oc2ncccc2N)cc1,149 to 151 °C
2,Cc1sc2[nH]c(=O)oc(=O)c2c1C,199 to 201 °C
3,O=C(O)CCc1nnc(-c2ccsc2)o1,159 to 161 °C
4,O=C(O)CCNc1ccccc1[N+](=O)[O-],144 to 146 °C
5,Cc1sc2nc(-c3ccc(OC(F)F)cc3)nc(Cl)c2c1C,140 to 142 °C
6,O=C1CCC(C(F)(F)F)CN1 (centres undefined),141 to 143 °C
7,Cc1cc(CCC(=O)O)ccc1Br,89 to 91 °C
8,CCOC(=O)Cc1nn[nH]n1,120 to 127 °C
9,O=C(Nc1ccc(Cl)cn1)OCC(F)(F)F,158 to 160 °C
10,CS(=O)(=O)c1cccs1,43 to 45 °C
11,CN1CCN(C(=O)Cn2cc(N)cn2)CC1,119 to 121 °C
12,O=C(O)CCc1n[nH]c(=O)[nH]c1=O,203 to 205 °C
13,c1ccc2[nH]c(C3CC3)nc2c1,232 to 234 °C
14,O=S1(=O)CC(S(=O)(=O)Cl)c2ccccc21 (centres undefined),144 to 146 °C
15,O=C(O)c1cccc(Oc2cccc(Cl)c2)n1,96 to 98 °C
16,O=C(O)CNC(=O)c1ccc(Cl)c([N+](=O)[O-])c1,190 to 192 °C
17,Cc1cc(C(=O)O)ccc1NC(=O)c1cccs1,199 to 201 °C
18,CC(C)(C)OC(=O)NC1CC(O)C1 (centres undefined),108 to 110 °C
19,Nc1cccc(CN2CCOCC2)n1,129 to 131 °C
20,O=C(O)c1cc2cc(Br)cc(Br)c2o1,279 to 281 °C
21,O=C(CCl)Nc1cc(C2CC2)nn1-c1ccccc1,120 to 122 °C
22,CNC(c1ccc(Cl)cc1)c1ccc(Cl)cc1,49 to 51 °C
23,CC(Cl)c1nc2ccccc2c(=O)[nH]1 (centres undefined),250 to 252 °C
24,Nc1nnc(Cc2ccccc2F)o1,167 to 169 °C

# — a melting point compilation (Tetko et al.)
